In patent US11771685B2, “Compounds for the treatment of neurological or mitochondrial diseases” (MUSC FOUNDATION FOR RESEARCH DEVELOPMENT, priority 2018, dated 2023):

Legend:
HT22 cells = assay: HT22 oxytosis (glutamate-induced cell death) neuroprotection assay; type: cell-based, mouse; conditions: 10 mM Glu
Description: The HT22 murine hippocampal cell system was chosen as an initial phenotypic screen for neuroprotective efficacy (Andreux et al., 2013; Andreux et al., 2014; Ohlow et al., 2017; Schubert and Maher, 2012). HT22 cells exposed to high extracellular Glu ([…]) undergo oxytosis, a non-apoptotic programmed cell death involving glutathione (GSH) depletion followed by ROS accumulation, oxidative damage, and a cytotoxic signaling cascade (Tan et al., 2001). Glu blocks the −xC cystine antiporter, causing (Tan et al., 2001) cells to accumulate severe oxidative stress, mitochondrial depolarization, disrupted mitochondrial morphology, and Ca^2+ influx (Tan et al., 2001; Yang et al., 2011; Cheng et al., 2013—cellular events that may occur in neurological diseases, including epilepsy. Thus, the immortalized HT22 cell line is a well-established model of neuronal oxidative stress (Sagara and Schubert, 1998; Matsumoto et al., 1996; Albrecht et al., 2010; Ha and Park, 2006; van Leyen et al., 2005; Tobaben et al., 2011), and a verified model of neurodegeneration to screen for potential neuroprotective drugs (Albrecht et al., 2010; van Leyen et al., 2008; Lewerenz et al., 2009; Lewerenz et al., 2003).
Consistent with that work, most of the 2-amino compounds achieved protection of HT22 cells against glutamate-induced oxytosis in the nM to μM range. […] Neuroprotection based on relative cell viability compared to +Glu and −Glu control cells was measured.
The HT22 neuronal cell line is a subclone of HT4, derived from the mouse hippocampus (Morimoto and Koshland, 1990). […] The HT22 cells used in this study were kindly provided by Dr. David Schubert (The Salk Institute for Biological Studies, La Jolla, CA, USA). The cells were grown in Dulbecco's Modified Eagle's Medium (DMEM/high glucose) supplemented with 10% fetal bovine serum (Hyclone) and 5 mL of antibiotic-antimycotic (Amphotericin B, Penicillin, and Streptomycin; Invitrogen) at 37° C. in 5% CO2.
HT-22 cells were seeded onto 96-well plates at 2.5×10^3 cells per well in 75 μL of medium and maintained at 37° C. in 5% CO2 overnight prior to the initiation of experimental treatments. For glutamate toxicity testing, cells were subsequently treated with 25 μL of medium containing glutamate (monosodium glutamate, Sigma, 1 M stock concentration in media, to achieve a final concentration of 10 mM) plus compound (stock in DMSO) and maintained at 37° C. in 5% CO2 for 24 hr. CellTiter-Blue® (resazurin cell viability assay reagent) was then added to each well at a final concentration of 0.125 mg/mL. The mixture was allowed to incubate for 2-4 hr until sufficient color change occurred. Cell viability was measured as a function of resorufin fluorescence intensity using a Tecan M200 Pro spectrophotometer, 560 nm/590 nm (excitation/emission). Cell viability was calculated as a percentage compared with untreated controls. EC50s were determined using GraphPad Prism's “log(inhibitor) vs. normalized response-Variable slope” function. Morphology of HT22 cells following treatments was determined by phase-contrast microscopy.
Statistical analyses were performed with GraphPad Prism 6 software. For the in vitro HT22 oxytosis assay, dose-response data were fit using GraphPad Prism's log(inhibitor) vs normalized response-variable slope parameters to determine EC50 values and 95% confidence intervals. For the zebrafish locomotive anti-seizure activity data, multiple comparisons were made using a one-way analysis of variance (ANOVA) with a Kruskal-Wallis Test, followed by the Dunn's Method to determine significant differences between all pairs or between control and experimental groups using the Dunn Method for Joint Ranking. Differences were considered statistically significant when p<0.05. Data from zebrafish experiments are represented as scatter dot plots of individual measurements, with means±standard deviation indicated by bars.

[1] = Mini-Ames test (mutagenicity); type: cell-based; conditions: in vitro
Brain tissue binding = type: in vitro ADME; conditions: in vitro, read-out: Brain tissue binding (% bound)
[2] = Liver microsome stability; type: in vitro ADME; conditions: in vitro; for half-life: liver microsomes, read-out: Liver microsome stability (t1/2)
Zebrafish larvae = assay: In vivo toxicology in zebrafish larvae
Description: Zebrafish larvae, 7 days post-fertilization (dpf), were exposed to compounds at 20, 15, 10, and 5 μM, six larvae per compound. Animals were observed 1, 5, and 24 hr after dosing for overt toxicity (altered survival, morbidity, morphological deformity). Heart rate, behavior, and startle response were monitored at each time point.
Zebrafish (AB strain) were obtained from the Zebrafish International Resource Center (supported by P40 RR012546 from NIH—NCRR). Zebrafish were maintained and crossed according to standard methods (Westerfield, 2000). Fertilized eggs were collected and placed in E3 embryo medium and positioned in an incubator set at 28.5° C. with a 14/10-hr light/dark cycle (Kimmel et al., 1995). To determine the lethal dose of each compound, 96-well plates containing one zebrafish (7 days post-fertilization, dpf) per well in 100 μL of tank water were used. 100 μL of each compound (0.5-15 μM) was added to each well for 12 animals (one row) for a final volume of 200 μL. One row of larvae was used as dimethyl sulfoxide (DMSO)-only controls. […] All zebrafish studies were approved by the Medical University of South Carolina Institutional Animal Care and Use Committee (#180278) and performed in accordance with the guidelines.
Using a 96-well plate, 7 dpf zebrafish were placed one per well with 100 μL of tank water. 100 μL of each compound was then added to each well for 12 animals (one row) for a final volume of 200 μL. One row of zebrafish larvae was used as DMSO only controls.

[3] = Mus musculus, HT-22, 24 h, HT22 cells, 24 hr, 95% CI in parentheses

| SMILES | EC50 (HT22 cells; Mus musculus, HT-22, HT22 cells) | Mini-Ames test (mutagenicity) [1] | Mini-Ames test (mutagenicity) ([1]; listed as NT-102) | fraction unbound (Brain tissue binding) | Liver microsome stability (t1/2) ([2]; listed as NT-102) | half-life [2] | survival (Zebrafish larvae; 24 hr, highest concentrations) | concentration with no overt toxicity (Zebrafish larvae; AB, zebrafish, in vivo) | EC50 (HT22 cells; HT22 cells, 24 hr, 95% CI in parentheses) | EC50 (HT22 cells; [3]) | concentration lethal/toxic at 24 hr (Zebrafish larvae; 7 dpf larvae, 24 hr) | Mini-Ames test (mutagenicity) ([1]; listed as NT-181) | Liver microsome stability (t1/2) ([2]; listed as NT-181) |
| --- | --- | --- | --- | --- | --- | --- | --- | --- | --- | --- | --- | --- | --- |
| CC(C)CCNC1=CC(=O)c2ccccc2C1=O [Compound 17, 2-(Isopentylamino)naphthalene-1,4-dione] | > 12000 nM | Ames-negative | Negative | 0.02 to 0.03 | >1 h | > 1 h | – | – | – | – | – | – | – |
| CC(C)CCOC1=CC(=O)c2ccccc2C1=O [Compound 25, 2-(Isopentyloxy)naphthalene-1,4-dione] | – | – | – | – | – | – | ⅔ | ≤ 10 µM | 23.9 nM | ~24 nM | – | – | – |
| CCC#CCNC1=CC(=O)c2ccccc2C1=O [Compound 3, 2-(Pent-2-yn-1-ylamino)naphthalene-1,4-dione] | – | Ames-negative | – | 0.02 to 0.03 | – | > 1 h | – | – | – | 1010 nM | above 5 μM | Negative | >1 h |
